One series deals with Coxsackie-virus B1. Kind of series: Cytopathic effect (CPE) inhibition assay. It is filed as cell-based, Coxsackievirus B1. The settings on record: Enterovirus B, HeLa37, 48 h, HeLa, 37° C., 2 days.
Another series concerns Coxsackie-virus B3. Put plainly: Cytopathic effect (CPE) inhibition assay. It is filed as cell-based, Coxsackievirus B3. Particulars: Enterovirus B, HeLa37, 48 h; Table 4; HeLa, 37° C., 2 days; read-out: Coxsackie-virus B3 EC50. (In general: Protection from cytopathic effect is a common read-out in antiviral testing.)
Another series is described as follows: in vitro. Particulars: human.
[1] abbreviates: Table 4, read-out: Coxsackie-virus B1 EC50.
The mark [2] stands for this setting: Table 3, read-out: EC50 Coxsackie-virus B1.

SMILES strings stand for the structures. ≈ marks a conversion by molar mass, not a printed value. Like-named read-outs stand apart in the source and are kept apart here. Some results are limits rather than exact numbers.

As usually defined, the EC50 is the concentration that produces a half-maximal response. What is called melting point is the temperature of the solid-liquid transition.

Take `CCOC(=O)Oc1cc(C(C)C)ccc1C1(NC(C)=O)C(=O)c2ccccc2C1=O` [Example 101, 2-(2-Acetamido-1,3-dioxo-2,3-dihydro-1H-inden-2-yl)-5-isopropylphenyl ethyl carbonate]: the EC50 with Coxsackie-virus B1 (setting [1]) and with Coxsackie-virus B3 was less than 0.01 µg/mL each time. Further, the CC50 in the series “in vitro” (Picorna-virus CC50) was 46 µg/mL (≈ 112 µM).
`CCCCCC(=O)NC1(c2ccc(C(C)C)cc2OC(=O)CCCCC)C(=O)c2ccccc2C1=O` [Example 78, Hexanoic acid 2-(2-hexanoylamino-1,3-dioxo-indan-2-yl)-5-isopropyl-phenyl ester]: the EC50 in the series with Coxsackie-virus B1 (setting [1]) and in the series with Coxsackie-virus B3 was less than 0.01 µg/mL each time. In “in vitro” (Picorna-virus CC50), this compound had a CC50 of 68.2 µg/mL (≈ 139 µM).
As to `CCC(=O)NC1(c2ccc(C(C)C)cc2OC(=O)CC)C(=O)c2cccc(N)c2C1=O` (stereo not drawn) [Example 84, 2-(4-Amino-1,3-dioxo-2-propionamido-2,3-dihydro-1H-inden-2-yl)-5-isopropylphenyl propionate], the EC50 with Coxsackie-virus B1 (setting [1]) and with Coxsackie-virus B3 was less than 0.01 µg/mL throughout. Also, the CC50 in the series “in vitro” (Picorna-virus CC50) is more than 100 µg/mL.
Turning to `CCCCCCC(=O)NC1(c2ccc(C(C)C)cc2OC(=O)CCCCCC)C(=O)c2cccc(N)c2C1=O` (stereo not drawn) [Example 83, 2-(4-Amino-2-heptanamido-1,3-dioxo-2,3-dihydro-1H-inden-2-yl)-5-isopropylphenyl heptanoate], the EC50 in the series with Coxsackie-virus B1 (setting [1]) and in the series on Coxsackie-virus B3 was less than 0.01 µg/mL throughout. This compound also returned a CC50 in “in vitro” (Picorna-virus CC50) of more than 100 µg/mL.
For the compound `CC(=O)Nc1ccc([N+](=O)[O-])c2c1C(=O)C(O)(c1cc(C)c(C)cc1NC(=O)C(C)C)C2=O` (stereo not drawn) [Example 94, N-(2-(4-Acetamido-2-hydroxy-7-nitro-1,3-dioxo-2,3-dihydro-1H-inden-2-yl)-4,5-dimethylphenyl)isobutyramide], the EC50 in the series with Coxsackie-virus B1 (setting [1]) and in the series with Coxsackie-virus B3 was less than 0.01 µg/mL each time. The same compound gave a CC50 in “in vitro” (Picorna-virus CC50) of 39.2 µg/mL (≈ 86.4 µM).
For the compound `CCCCC(=O)Oc1cc(C(C)C)ccc1C1(NC(C)=O)C(=O)c2ccccc2C1=O` [Example 93, 2-(2-Acetamido-1,3-dioxo-2,3-dihydro-1H-inden-2-yl)-5-isopropylphenyl pentanoate], the EC50 in the series with Coxsackie-virus B1 (setting [1]) and in the series on Coxsackie-virus B3 was less than 0.01 µg/mL in each case. For the same compound, the CC50 in “in vitro” (Picorna-virus CC50) is 35.2 µg/mL (≈ 83.5 µM).
On to `CCCCCCC(=O)NC1(c2ccc(C(C)C)cc2OC(=O)CCCCCC)C(=O)c2ccccc2C1=O` [Example 79, Heptanoic acid 2-(2-heptanoylamino-1,3-dioxo-indan-2-yl)-5-isopropyl-phenyl ester], for which the EC50 with Coxsackie-virus B1 (setting [1]) and in the series on Coxsackie-virus B3 was less than 0.01 µg/mL in each case. In “in vitro” (Picorna-virus CC50), this compound showed a CC50 of 8.94 µg/mL (≈ 17.2 µM).
Take `CCCC(=O)NC1(c2ccc(C(C)C)cc2OC(=O)CCC)C(=O)c2ccccc2C1=O` [Example 76, Butyric acid 2-(2-butyrylamino-1,3-dioxo-indan-2-yl)-5-isopropyl-phenyl ester]: the figures for the EC50 in the series with Coxsackie-virus B1 (setting [1]) and in the series with Coxsackie-virus B3 were less than 0.01 µg/mL and less than 0.04 µg/mL, respectively. The same compound had a CC50 in “in vitro” (Picorna-virus CC50) of 45.1 µg/mL (≈ 104 µM).
In the case of `CC(C)c1ccc(C2(OC(=O)c3ccccc3)C(=O)c3ccccc3C2=O)c(O)c1` [Example 23, 2-(2-Hydroxy-4-isopropylphenyl)-1,3-dioxo-2,3-dihydro-1H-inden-2-yl benzoate], the melting point fell in the range of 117 to 119 °C. Further, the EC50 in the series on Coxsackie-virus B1 (setting [2]) is less than 0.01 µg/mL. The CC50 in “in vitro” (CC50) turned out to be 44.3 µg/mL (≈ 111 µM).
Consider `CC(C)c1ccc(C2(O)C(=O)c3ccccc3C2=O)c(OC(=O)/C=C/c2ccccc2)c1` [Example 30, 2-(2-Hydroxy-1,3-dioxo-2,3-dihydro-1H-inden-2-yl)-5-isopropylphenyl cinnamate], for which the melting point is 95 to 97 °C. In addition, in the series on Coxsackie-virus B1 (setting [2]), the EC50 is less than 0.01 µg/mL. In “in vitro” (CC50), this compound had a CC50 of more than 100 µg/mL.
`CCCC(=O)Oc1cc(C(C)C)ccc1C1(OC(=O)CCC)C(=O)c2ccccc2C1=O` [Example 22, 2-(2-(Butyryloxy)-1,3-dioxo-2,3-dihydro-1H-inden-2-yl)-5-isopropylphenyl butyrate]: the melting point lay within 98 to 102 °C. For the same compound, the EC50 in the series with Coxsackie-virus B1 (setting [2]) is less than 0.01 µg/mL. Besides, the CC50 in the series “in vitro” (CC50) was determined as 33.8 µg/mL (≈ 77.4 µM).
